Laboratory results as given in patent US12351570B2 (MERCK PATENT GMBH, priority 2018, dated 2025).

These compounds were tested on MDA-MB-231 cells (assay: Extracellular lactate production inhibition after 4 h, MDA-MB-231). Settings: Homo sapiens, MDA-MB-231.

| Compound | IC50 [nM] |
| --- | --- |
| O=C(O)c1ccc(C#Cc2ccccc2NS(=O)(=O)c2cccc3c(Cl)cc(Cl)nc23)cn1 [Compound 314, 5-{2-[2-(2,4-dichloroquinoline-8-sulfonamido)phenyl]ethynyl}pyridine-2-carboxylic acid] | 100 to 1000 |
| O=C(O)c1ccc(C#Cc2ccccc2NS(=O)(=O)c2c(Br)ccc3ccc(Cl)nc23)cn1 [Compound 315, 5-{2-[2-(7-bromo-2-chloroquinoline-8-sulfonamido)phenyl]ethynyl}pyridine-2-carboxylic acid] | 10 to 100 |
| COC(=O)c1ncc(C#Cc2cc(F)ccc2NS(=O)(=O)c2ccc(OC)c3cccnc23)cc1C [Compound 316, methyl 5-{2-[5-fluoro-2-(5-methoxyquinoline-8-sulfonamido)phenyl]ethynyl}-3-methylpyridine-2-carboxylate] | 1000 to 100000 |
| Cc1ccc2cc(Cl)cc(S(=O)(=O)Nc3ccccc3C#Cc3ccc(C(=O)O)nc3)c2n1 [Compound 317, 5-{2-[2-(6-chloro-2-methylquinoline-8-sulfonamido)phenyl]ethynyl}pyridine-2-carboxylic acid] | 100 to 1000 |
| COC(=O)c1ncc(C#Cc2cc(F)ccc2NS(=O)(=O)c2ccc3c(c2)oc2ccccc23)cc1C [Compound 318, methyl 5-[2-(5-fluoro-2-{8-oxatricyclo[7.4.0.0^2,7]trideca-1(9),2(7),3,5,10,12-hexaene-5-sulfonamido}phenyl)ethynyl]-3-methylpyridine-2-carboxylate] | 1000 to 100000 |
| O=C(O)c1ccc(C#Cc2ccccc2NS(=O)(=O)c2c(Br)ccc3c(Cl)ccnc23)cn1 [Compound 319, 5-{2-[2-(7-bromo-4-chloroquinoline-8-sulfonamido)phenyl]ethynyl}pyridine-2-carboxylic acid] | 10 to 100 |
| O=C(O)c1ccc(C#Cc2ccccc2NS(=O)(=O)c2c(F)ccc3c(Cl)ccnc23)cn1 [Compound 320, 5-{2-[2-(4-chloro-7-fluoroquinoline-8-sulfonamido)phenyl]ethynyl}pyridine-2-carboxylic acid] | 10 to 100 |
| COC(=O)c1ncc(C#Cc2cc(F)ccc2NS(=O)(=O)c2cccc(OC)c2)cc1C [Compound 321, methyl 5-{2-[5-fluoro-2-(3-methoxy-benzenesulfonamido)phenyl]ethynyl}-3-methylpyridine-2-carboxylate] | 1000 to 100000 |
| COc1cccc(S(=O)(=O)Nc2ccc(F)cc2C#Cc2cnc(C(=O)O)c(C)c2)c1 [Compound 322, 5-{2-[5-fluoro-2-(3-methoxybenzene-sulfonamido)phenyl]ethynyl}-3-methylpyridine-2-carboxylic acid] | 1000 to 100000 |
| O=C(O)c1ncc(C#Cc2ccccc2NS(=O)(=O)c2cccc3c(Cl)ccnc23)cc1Cl [Compound 323, 3-chloro-5-{2-[2-(4-chloroquinoline-8-sulfonamido)phenyl]ethynyl}pyridine-2-carboxylic acid] | 1000 to 100000 |
| COc1ccnc2c(S(=O)(=O)Nc3ccccc3C#Cc3ccc(C(=O)O)nc3)cccc12 [Compound 324, 5-{2-[2-(4-methoxyquinoline-8-sulfonamido)phenyl]ethynyl}pyridine-2-carboxylic acid] | 100 to 1000 |
| COc1ccc(S(=O)(=O)Nc2cc(F)c(Br)cc2C#Cc2ccc(C(=O)O)nc2)c2ncccc12 [Compound 325, 5-{2-[5-bromo-4-fluoro-2-(5-methoxy-quinoline-8-sulfonamido)phenyl]-ethynyl}pyridine-2-carboxylic acid] | 1 to 10 |
| O=C(O)c1ccc(C#Cc2ccccc2NS(=O)(=O)/C=C/c2ccccc2)cn1 [Compound 326, 5-(2-{2-[(E)-2-phenylethenesulfon-amido]phenyl}ethynyl)pyridine-2-carboxylic acid] | 1000 to 100000 |
| CCOc1ccc(C#Cc2ccc(C(=O)O)nc2)c(NS(=O)(=O)c2cccc3cccnc23)c1 [Compound 327, 5-[4-Ethoxy-2-(quinoline-8-sulfonylamino)-phenylethynyl]-pyridine-2-carboxylic acid] | 1000 to 100000 |
| COc1ccc(S(=O)(=O)Nc2ccc(Br)cc2C#Cc2ccc(C(=O)O)nc2)c2ncccc12 [Compound 328, 5-{2-[5-bromo-2-(5-methoxyquinoline-8-sulfonamido)phenyl]ethynyl}pyridine-2-carboxylic acid] | 1 to 10 |
| CCOc1ccc(NS(=O)(=O)c2cccc3cccnc23)c(C#Cc2ccc(C(=O)O)nc2)c1 [Compound 329, 5-[5-Ethoxy-2-(quinoline-8-sulfonylamino)-phenylethynyl]-pyridine-2-carboxylic acid] | 100 to 1000 |
| COCCOCCOc1ccnc2c(S(=O)(=O)Nc3ccccc3C#Cc3ccc(C(=O)O)nc3)cccc12 [Compound 330, 5-[2-(2-{4-[2-(2-methoxyethoxy)-ethoxy]quinoline-8-sulfonamido}-phenyl)ethynyl]pyridine-2-carboxylic acid] | 1000 to 100000 |
| CC(C)(C)OC(=O)NCCOCCOCCOc1ccc(NS(=O)(=O)c2cccc3cccnc23)c(C#Cc2ccc(C(=O)O)nc2)c1 [Compound 331, 5-[5-{2-[2-(2-tert-Butoxycarbonylamino-ethoxy)-ethoxy]-ethoxy}-2-(quinoline-8-sulfonylamino)-phenylethynyl]-pyridine-2-carboxylic acid] | 1000 to 100000 |
| NCCOCCOCCOc1ccc(C#Cc2ccc(C(=O)O)nc2)c(NS(=O)(=O)c2cccc3cccnc23)c1 [Compound 332, 5-[4-{2-[2-(2-Amino-ethoxy)-ethoxy]-ethoxy}-2-(quinoline-8-sulfonylamino)-phenylethynyl]-pyridine-2-carboxylic acid] | 1000 to 100000 |
| NCCOCCOCCOc1ccc(NS(=O)(=O)c2cccc3cccnc23)c(C#Cc2ccc(C(=O)O)nc2)c1 [Compound 333, 5-[5-{2-[2-(2-Amino-ethoxy)-ethoxy]-ethoxy}-2-(quinoline-8-sulfonylamino)-phenylethynyl]-pyridine-2-carboxylic acid] | 1000 to 100000 |
| O=C(O)c1ccc(C#Cc2ccccc2NS(=O)(=O)/C=C/c2ccccc2)cc1 [Compound 334, 4-(2-{2-[(E)-2-phenylethenesulfonamido]-phenyl}ethynyl)benzoic acid] | 100 to 1000 |
| Cc1cc(S(=O)(=O)Nc2ccccc2C#Cc2cnc(C(=O)O)c(Cl)c2)c2ncccc2c1 [Compound 335, 3-chloro-5-{2-[2-(6-methylquinoline-8-sulfonamido)phenyl]ethynyl}pyridine-2-carboxylic acid] | 1000 to 100000 |
| CCOc1ccc(S(=O)(=O)Nc2ccccc2C#Cc2ccc(C(=O)O)nc2)c2ncccc12 [Compound 336, 5-{2-[2-(5-ethoxyquinoline-8-sulfonamido)phenyl]ethynyl}pyridine-2-carboxylic acid] | 10 to 100 |
| CC(C)Oc1ccc(S(=O)(=O)Nc2ccccc2C#Cc2ccc(C(=O)O)nc2)c2ncccc12 [Compound 339, 5-(2-{2-[5-(propan-2-yloxy)quinoline-8-sulfonamido]phenyl}ethynyl)pyridine-2-carboxylic acid] | 10 to 100 |
| Cc1ccc2cccnc2c1S(=O)(=O)Nc1ccc(Br)cc1C#Cc1ccc(C(=O)O)nc1 [Compound 340, 5-{2-[5-bromo-2-(7-methylquinoline-8-sulfonamido)phenyl]ethynyl}pyridine-2-carboxylic acid] | 1 to 10 |
| Cc1ccc2cccnc2c1S(=O)(=O)Nc1cc(F)c(Br)cc1C#Cc1ccc(C(=O)O)nc1 [Compound 341, 5-{2-[5-bromo-4-fluoro-2-(7-methylquinoline-8-sulfonamido)phenyl]-ethynyl}pyridine-2-carboxylic acid] | 1 to 10 |
